Data: patent US20240192233A1, “DRUG DISCOVERY ASSAY TO SCREEN FOR COMPOUNDS” (FUNDACIÓ INSTITUT DE RECERCA BIOMÈDICA (IRB BARCELONA), priority 2021, published 2024)

Columns and labels:
Assay type in all cases: biochemical
AR-NTD [1] = molecular target: T1, AR-NTD (Homo sapiens, UniProt P10275); test: Screening with the condensation assay, amplitude of the absorbance as parameter; conditions: screening concentration 100 μM; references DMSO and EPI-001 at 200 μM; mean of 3 measurements
T1 construct: a domain of the androgen receptor localised at its N-terminus, amino acids 1-558
T1 sequence (P10275 1-558): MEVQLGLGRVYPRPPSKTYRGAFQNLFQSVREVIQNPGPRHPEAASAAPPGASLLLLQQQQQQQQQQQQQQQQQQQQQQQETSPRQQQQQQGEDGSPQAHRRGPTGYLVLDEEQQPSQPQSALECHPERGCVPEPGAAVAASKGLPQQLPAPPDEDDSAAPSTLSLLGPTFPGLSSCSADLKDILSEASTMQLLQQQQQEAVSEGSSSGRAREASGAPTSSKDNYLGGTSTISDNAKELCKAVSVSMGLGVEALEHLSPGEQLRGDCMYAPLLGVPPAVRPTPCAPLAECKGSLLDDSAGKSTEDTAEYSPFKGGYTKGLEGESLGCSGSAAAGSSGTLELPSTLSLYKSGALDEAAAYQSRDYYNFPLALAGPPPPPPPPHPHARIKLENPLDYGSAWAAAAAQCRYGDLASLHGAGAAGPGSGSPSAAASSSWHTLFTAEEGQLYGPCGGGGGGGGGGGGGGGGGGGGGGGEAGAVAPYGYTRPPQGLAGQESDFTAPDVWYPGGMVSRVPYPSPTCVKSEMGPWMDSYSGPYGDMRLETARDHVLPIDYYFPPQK
Protocol: FIG. 9. Results of screening for molecules using the condensation assay with amplitude of the absorbance as a parameter determining the activity of tested molecules. First two bars show data points corresponding to the controls that are used to calculate the activity: negative reference (DMSO), positive reference (EPI-001 at 200 μM). The rest of the bars corresponds to the activity of three screened molecules at a screening concentration 100 μM. […] Mean values of 3 measurements and the standard deviation are plotted.
Please note that, with reference to this aspect of the invention, the inventors have shown that this parameter could also be used to select hits (see FIG. 9).

AR-NTD [2] = molecular target: T1, AR-NTD; test: Screening with the condensation (TSA) assay, percentage of shift versus reference shift; conditions: screening concentration 100 μM; negative reference DMSO; mean of 3 measurements
Protocol: FIG. 7. […] First two bars show data points corresponding to the controls that are used to calculate the activity: Negative reference (DMSO), Positive reference (EPI-001 at 200 μM). […] Mean values of 3 measurements and the standard deviation are plotted.
In this sense, in FIG. 7 the first two bars show data points corresponding to the controls that are used to calculate the activity: • Negative reference—DMSO • Positive reference—EPI-001 at 200 μM
Briefly, in order to quantitatively rank the tested compounds with regards to their efficacy to enhance the AR-NTD condensation in vitro and compare it to that of EPI-001, we measured the cloud point temperature (Tc) of each of the samples at constant protein concentration (100 μM). Then, we calculated the percentage of shift caused by the compound in comparison to the reference shift, the one caused by 200 μM EPI-001. Next, we plotted the normalised shift versus the compound concentration.

AR-NTD [3] = molecular target: T1, AR-NTD; test: Temperature-dependent turbidity shift assay (TSA), critical temperature Tc; conditions: 500 mM NaCl
Protocol: FIG. 6. a) Apparent absorbance (at λ=350 nm) measurement at increasing temperatures of 30 μM ARNTD in 20 mM Hepes 7.4, 500 mM NaCl, 2 mM TCEP buffer in the absence (grey) and presence of 5 eq of EPI-001 (red) or BADGE (green). Dashed lines indicate condensation onset and calculated Tc values are depicted in the insert. b) Tc obtained using the TSA assay of AR-NTD at different concentrations in 20 mM Hepes 7.4, 500 mM NaCl, 2 mM TCEP buffer in the absence (grey) and presence of 5 eq of EPI-001 (red) or BADGE (green). Mean values of 3 independent measurements and the standard deviation are plotted.
To quantify the effects of EPI-001 on the AR-NTD phase separation, we implemented a temperature-dependent turbidity shift assay (TSA). In this assay we measure the sample turbidity as a reporter of condensation and determine the temperature at which a given sample demixes, the Critical Temperature. When droplets are formed, they scatter light and cause an abrupt increase in turbidity. Therefore, values above 0 absorbance units (AU) in the TSA assay indicate condensation. We measure turbidity as the apparent absorbance at a wavelength in which the absorption of the other components in the sample is minimal, in our case 350 nm. Addition of 5 equivalents (eq) of EPI-001 to a 30 μM AR-NTD and 500 mM NaCl sample lowered the Tc of the AR-NTD by 10° C. (FIG. 5a). […]

| Compound | hit classification by activity based on amplitude of the absorbance, cut-off 25% (AR-NTD [1]) | hit classification by activity (percentage of Tc shift relative to 200 μM EPI-001), cut-off 25% (AR-NTD [2]) | enhancement of AR-NTD condensation at all protein concentrations tested (left arm of phase diagram) (AR-NTD [3]; 5 eq of compound, various AR-NTD concentrations) | lowering of the Tc of the AR-NTD (AR-NTD [3]; 5 equivalents of compound, 30 μM AR-NTD, absorbance at 350 nm) |
| --- | --- | --- | --- | --- |
| CC(C)(c1ccc(OC[C@H](O)CNS(C)(=O)=O)cc1)c1cc(Cl)c(OC[C@H](O)CCl)c(Cl)c1 [EPI-7170] | hits | hits | – | – |
| CC(C)(c1ccc(OCC2CO2)cc1)c1ccc(OCC2CO2)cc1 (stereo not drawn) [BADGE] | inactive | non-hit | not | 3 °C |
